From ChEMBL document CHEMBL5120782, “Structure and Candidate Biosynthetic Gene Cluster of a Manumycin-Type Metabolite from Salinispora pacifica” (J Nat Prod, 2022)

Tests used:
[1] = Antibacterial activity against Bacillus oceanisediminis CNY-977 assessed as reduction in microbial growth incubated for 18 hrs by CLSI based method; type: functional; settings: Cytobacillus oceanisediminis
NCI-H460 = assay: Cytotoxicity against human NCI-H460 cells assessed as reduction in cell viability incubated for 48 hrs by MTT assay; type: functional, cell-based; settings: NCI-H460, 48 h

Row | MIC [1] [µM] | Compound | EC50 (NCI-H460) [µM]
1 | 50 | CC(C)=C[C@H](C)C[C@H](C)/C=C(\CO)C(=O)NC1=C[C@](O)(CCC(N)=O)[C@H]2O[C@H]2C1=O | –
2 | – | CCCC/C=C/C=C/C=C/C=N/NN=O | 5.5
